Test results as given in patent publication US6479531B1, “Gastrin and cholecystokinin receptor ligands” (James Black Foundation Limited, priority 1998, dated 2002).

What was measured:
CCKB receptor = biological target: T1, CCKB receptor (Mus musculus, UniProt P56481); assay: CCKB receptor radioligand binding assay in mouse cortical membranes; conditions: [125I]-CCK8(S) 200 pM, 150 min at 21±3°; for Ki: read-out: CCKB pKi (converted)
T1 construct: The whole brains from male mice (CD1 22-25 g; Charles River) were removed; from tissue; host or cells: cerebral cortex membranes of male CD1 mice
T1 sequence (P56481 1-453): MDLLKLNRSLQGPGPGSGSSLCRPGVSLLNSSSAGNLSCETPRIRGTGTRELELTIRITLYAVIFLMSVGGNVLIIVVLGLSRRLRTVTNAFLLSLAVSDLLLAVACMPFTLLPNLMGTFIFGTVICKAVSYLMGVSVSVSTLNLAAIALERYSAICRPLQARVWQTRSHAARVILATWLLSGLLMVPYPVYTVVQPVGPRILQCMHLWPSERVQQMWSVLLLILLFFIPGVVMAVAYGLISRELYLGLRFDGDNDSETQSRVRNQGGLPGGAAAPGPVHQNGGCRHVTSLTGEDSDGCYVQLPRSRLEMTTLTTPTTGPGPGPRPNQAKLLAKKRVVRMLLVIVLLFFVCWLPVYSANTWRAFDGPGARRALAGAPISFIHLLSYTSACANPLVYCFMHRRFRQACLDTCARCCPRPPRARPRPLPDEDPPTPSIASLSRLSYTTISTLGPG
Procedure: The compounds of the examples were tested for binding at the CCKB receptor in mouse cortical membranes by means of a radioligand binding assay. The procedure was as follows:
The whole brains from male mice (CD1 22-25 g; Charles River) were removed and placed in ice-cold buffer (pH 7.2 @ 21±3°) of the following composition (mM); 10 HEPES, 130 NaCl, 4.7 KCl, 5 MgCl2, 1 EDTA and containing 0.25 gl^−1 bacitracin. The cortex was dissected, weighed and homogenised in 40 ml ice-cold buffer using a Teflon-in-glass homogeniser. The homogenate was centrifuged at 39800 g for 20 min […], the supernatant discarded and the pellet resuspended by homogenisation in fresh buffer. The homogenate was recentrifuged (39800 g, 20 min @ 4°) and the final pellet was resuspended in HEPES buffer to give a tissue concentration of 20 mg ml^−1 (original wet weight).
The assay was terminated by rapid filtration through pre-soaked Whatman GF/B filters using a Brandell Cell Harvester. The filters were washed (3×3 ml) with ice-cold 50 mM Tris-HCl (pH 7.4 @ 4° C.) and bound radioactivity determined by counting (1 min) in a gamma-counter.

gastrin receptor = biological target: T2, gastrin receptor (Rattus norvegicus, UniProt P30553); assay: gastrin antagonist activity in immature rat stomach assay (pentagastrin dose-response, acid secretion); conditions: isolated immature rat stomach, cumulative pentagastrin dose-response curves; for Kb: read-out: Gastrin pKb (converted)
T2 construct: The stomach was excised and flushed with ca. 1 ml of unbuffered physiological saline solution; from tissue; host or cells: isolated whole stomach of immature rats (ca. 21 days old)
T2 sequence (P30553 1-452): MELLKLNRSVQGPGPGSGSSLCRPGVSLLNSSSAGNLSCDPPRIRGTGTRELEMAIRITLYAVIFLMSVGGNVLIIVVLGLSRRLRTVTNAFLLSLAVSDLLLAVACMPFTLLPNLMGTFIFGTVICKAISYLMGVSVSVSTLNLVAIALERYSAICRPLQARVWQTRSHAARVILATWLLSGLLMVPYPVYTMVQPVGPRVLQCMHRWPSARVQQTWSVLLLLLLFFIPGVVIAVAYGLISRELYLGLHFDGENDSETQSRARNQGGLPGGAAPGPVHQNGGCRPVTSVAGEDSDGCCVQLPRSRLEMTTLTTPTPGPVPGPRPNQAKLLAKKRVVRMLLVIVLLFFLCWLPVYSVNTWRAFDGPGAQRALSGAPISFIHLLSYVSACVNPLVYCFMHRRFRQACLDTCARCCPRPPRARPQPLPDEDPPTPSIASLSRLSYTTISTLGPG
Summary of the method: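 Isolated, lumen-perfused stomach from immature rats (33-50 g, ca. 21 days) in a 37° organ bath with 3×10^−8 M 5-methylfurmethide, gassed 95% O2/5% CO2. Compound added serosally after 120 min stabilisation; cumulative pentagastrin dose-response curves begun 60 min later, acid secretion followed by perfusate pH.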

Row | Compound | Ki (CCKB receptor) | Kb (gastrin receptor) | further results
1 | 3-{[5-(2-Methyl-butyl)-2-o-tolyl-1H-imidazole-4-carbonyl]-amino}-benzoic Acid [Example 90] | – | – | CCKB pKi (CCKB receptor): 5.16
2 | 5-[(2-Adamantan-1-ylmethyl-5-phenyl-1H-pyrrole-3-carbonyl)-amino-methyl]-isophthalic Acid [Example 9] | – | – | CCKB pKi (CCKB receptor): 5.88
3 | O=C(Nc1cc(-c2nnn[nH]2)cc(-c2nnn[nH]2)c1)c1cc(-c2ccccc2)[nH]c1CC12CC3CC(CC(C3)C1)C2 [Example 2, 2-Adamantan-1-ylmethyl-5-phenyl-1H-pyrrole-3-carboxylic Acid [3,5-bis-(1H-tetrazol-5-yl)-phenyl]-amide] | 0.049 µM | – | –
4 | O=C(O)c1cccc(NC(=O)c2cc(-c3ccccc3)[nH]c2CC23CC4CC(CC(C4)C2)C3)c1 [Example 3, 3-[(2-Adamantan-1-ylmethyl-5-phenyl-1H-pyrrole-3-carbonyl)-amino]-benzoic Acid] | 1.45 µM | – | –
5 | O=C(Nc1cc(-c2nnn[nH]2)cc(-c2nnn[nH]2)c1)c1cc(-c2ccc3ccccc3c2)[nH]c1CC12CC3CC(CC(C3)C1)C2 [Example 5, 2-Adamantan-1-ylmethyl-5-naphthalen-2-yl-1H-pyrrole-3-carboxylic Acid [3,5-bis-(1H-tetrazol-5-yl)-phenyl]-amide] | 0.229 µM | – | –
6 | O=C(O)c1ccccc1NC(=O)c1cc(-c2ccccc2)[nH]c1CC12CC3CC(CC(C3)C1)C2 [Example 6, 2-[(2-Adamantan-1-ylmethyl-5-phenyl-1H-pyrrole-3-carbonyl)-amino]-benzoic Acid] | 0.832 µM | – | –
7 | O=C(O)c1ccc(NC(=O)c2cc(-c3ccccc3)[nH]c2CC23CC4CC(CC(C4)C2)C3)cc1 [Example 7, 4-[(2-Adamantan-1-ylmethyl-5-phenyl-1H-pyrrole-3-carbonyl)-amino]-benzoic Acid] | 0.646 µM | – | –
8 | Cn1c(-c2ccccc2)cc(C(=O)Nc2cc(C(=O)O)cc(C(=O)O)c2)c1CC12CC3CC(CC(C3)C1)C2 [Example 8, 5-[(2-Adamantan-1-ylmethyl-1-methyl-5-phenyl-1H-pyrrole-3-carbonyl)-amino]-isophthalic Acid] | 1.02 µM | – | –
9 | O=C(O)CCNC(=O)c1cc(-c2ccccc2)[nH]c1CC12CC3CC(CC(C3)C1)C2 [Example 10, 3-[(2-Adamantan-1-ylmethyl-5-phenyl-1H-pyrrole-3-carbonyl)-amino]-propionic Acid] | 3.02 µM | – | –
10 | (3-{[5-(Adamantan-1-yloxymethyl)-2-cyclohet-4-enyl-1H-imidazole-4-carbonyl]-amino}-phenyl)-acetic Acid [Example 231] | – | – | Gastrin pKb (gastrin receptor): 7.49
11 | (±)-3-{[5-(2-Adamantan-1-yl-ethyl)-2-[1-(2-methyl-propyl)-piperidin-2-yl])-1H-imidazole-4-carbonyl]-amino}-benzoic Acid [Example 140] | – | – | Gastrin pKb (gastrin receptor): 7.54
12 | (±)-5-{[5-(2-Adamantan-1-yl-ethyl)-2-[1-methyl-piperidin-2-yl])-1H-imidazole-4-carbonyl]-amino}-2-methyl-benzoic Acid [Example 141] | – | – | Gastrin pKb (gastrin receptor): 7.21

The next lines start with results.

Row | Ki (CCKB receptor) | Kb (gastrin receptor) | Compound | further results
13 | 2.51 µM | – | Cc1ccccc1-c1nc(C(=O)N2CCCC(C(=O)O)C2)c(CCC23CC4CC(CC(C4)C2)C3)[nH]1 (racemic) [Example 93, (±)-1-[5-(2-Adamantan-1-yl-ethyl)-2-o-tolyl-1H-imidazole-4-carbonyl]-piperidine-3-carboxylic Acid] | –
14 | 5.37 µM | – | Cc1ccccc1-c1nc(C(=O)N2CCC(C(=O)O)CC2)c(CCC23CC4CC(CC(C4)C2)C3)[nH]1 (racemic) [Example 94, (±)-1-[5-(2-Adamantan-1-yl-ethyl)-2-o-tolyl-1H-imidazole-4-carbonyl]-piperidine-4-carboxylic Acid] | –
15 | – | 0.589 µM | CCCCCC12CCC(c3nc(C(=O)Nc4cccc(C(=O)O)c4)c(COC45CC6CC(CC(C6)C4)C5)[nH]3)(CC1)CC2 [Example 302, 3-{[5-(Adamantan-1-yloxymethyl)-2-(4-pentyl-bicyclo[2.2.2]oct-1-yl)-1H-imidazole-4-carbonyl]-amino}-benzoic Acid] | –
16 | – | 0.0117 µM | CC1(c2nc(C(=O)Nc3cccc(C(=O)O)c3)c(COC34CC5CC(CC(C5)C3)C4)[nH]2)CCCCC1 [Example 303, 3-{[5-(Adamantan-1-yloxymethyl)-2-(1-methyl-cyclohexyl)-1H-imidazole-4-carbonyl]-amino}-benzoic Acid] | –
17 | – | 0.024 µM | Cc1ccccc1-c1nc(C(=O)Nc2cccc(C(=O)O)c2)c(COC23CC4CC(CC(C4)C2)C3)[nH]1 [Example 304, 3-{[5-(Adamantan-1-yloxymethyl)-2-o-tolyl-1H-imidazole-4-carbonyl]-amino}-benzoic Acid] | –
18 | – | 0.01 µM | Cc1ccc(NC(=O)c2nc(-c3ccccc3C)[nH]c2COC23CC4CC(CC(C4)C2)C3)cc1C(=O)O [Example 305, 5-{[5-(Adamantan-1-yloxymethyl)-2-o-tolyl-1H-imidazole-4-carbonyl]-amino}-2-methyl-benzoic Acid] | –
19 | – | 0.0589 µM | N#Cc1ccccc1-c1nc(C(=O)Nc2cccc(C(=O)O)c2)c(COC23CC4CC(CC(C4)C2)C3)[nH]1 [Example 306, 3-{[5-(Adamantan-1-yloxymethyl)-2-(2-cyano-phenyl)-1H-imidazole-4-carbonyl]-amino}-benzoic Acid] | –
20 | – | 0.0186 µM | O=C(O)c1cccc(NC(=O)c2c(COC34CC5CC(CC(C5)C3)C4)nc(C3CCCCC3)n2O)c1 [Example 308, 3-{[5-(Adamantan-1-yloxymethyl)-2-cyclohexyl-3-hydroxy-3H-imidazole-4-carbonyl]-amino}-benzoic Acid] | –
21 | – | 0.0245 µM | O=C(O)c1cccc(NC(=O)c2nc(C3CCCCC3)[nH]c2COCC23CC4CC(CC(C4)C2)C3)c1 [Example 309, 3-{[5-(Adamantan-1-ylmethoxymethyl)-2-cyclohexyl-1H-imidazole-4-carbonyl]-amino}-benzoic Acid] | –
22 | – | 0.115 µM | Cc1ccc(NC(=O)c2nc(C3CCCCC3)[nH]c2COCC23CC4CC(CC(C4)C2)C3)cc1C(=O)O [Example 310, 5-{[5-(Adamantan-1-ylmethoxymethyl)-2-cyclohexyl-1H-imidazole-4-carbonyl]-amino}-2-methyl-benzoic Acid] | –
23 | – | 0.00871 µM | O=C(O)c1cccc(NC(=O)c2nc(-c3c(Cl)cccc3Cl)[nH]c2COC23CC4CC(CC(C4)C2)C3)c1 [Example 311, 3-{[5-(Adamantan-1-yloxymethyl)-2-(2,6-dichloro-phenyl)-1H-imidazole-4-carbonyl]-amino}-benzoic Acid] | –
24 | – | 0.0347 µM | Cc1cc(C)c(-c2nc(COC34CC5CC(CC(C5)C3)C4)c(C(=O)Nc3cccc(C(=O)O)c3)n2O)c(C)c1 [Example 312, 3-{[5-(Adamantan-1-yloxymethyl)-2-(2,4,6-trimethyl-phenyl)-3-hydroxy-3H-imidazole-4-carbonyl]-amino}-benzoic Acid] | –
25 | – | 0.0186 µM | O=C(O)c1cccc(NC(=O)c2c(COC34CC5CC(CC(C5)C3)C4)nc(-c3c(Cl)cccc3Cl)n2O)c1 [Example 313, 3-{[5-(Adamantan-1-yloxymethyl)-2-(2,6-dichloro-phenyl)-3-hydroxy-3H-imidazole-4-carbonyl]-amino}-benzoic Acid] | –
26 | – | 0.00631 µM | O=C(O)c1cccc(NC(=O)c2c(COC34CC5CC(CC(C5)C3)C4)nc(C34CCC(CC3)CC4)n2O)c1 [Example 314, 3-{[5-(Adamantan-1-yloxymethyl)-2-bicyclo[2.2.2]oct-1-yl-3-hydroxy-3H-imidazole-4-carbonyl]-amino}-benzoic Acid] | –
